Experimental data as given in patent US6191144A, “Method of using angiotensin converting enzyme inhibitor to stimulate angiogenesis” (priority 1999, dated 2001).
“Also recorded” adds a separate entry of the source.

What was measured:
[1] = test system: rabbit ischemic hindlimb model; test: Angiographic score of collateral development; settings: D40; medial thigh
[2] = test system: Angiotensin Converting Enzyme; test: Tissue ACE activity in thigh muscle homogenate of treated rabbits; assay type: in vivo, New Zealand White rabbits; settings: for mean tissue ACE activity in thigh muscles: additional rabbits treated D10 up to D35; for residual tissue ACE activity, % of non-treated tissue activity: thigh muscle, treated D10 up to D35
Description: Then, they were sacrificed, and muscles harvested for tissue in order to measure tissue ACE activity.
In order to determine the tissue ACE activity, muscles from the additional group were harvested, weighed, and homogenized in PBS. The obtained solution was used as a substrate for the ACE determination kit (Sigma, St. Louis, Mo.), and the result, divided by sample weight, is expressed as international units per gram of tissue (Ul/g).

[3] = test system: Angiotensin Converting Enzyme; test: Serum ACE activity (Sigma kit, FAPGG substrate) in treated ischemic rabbits; assay type: in vivo, New Zealand White rabbits; settings: for residual ACE activity in serum (D14 serum activity/D10 serum activity): D14, 24 hours after injection, daily s.c. captopril 25 mg or quinaprilat 2 mg; for serum ACE activity as percentage of basal value: D40, after 5 days of discontinuation of injections; for serum ACE inhibition at any time: daily s.c. treatment, inferred from 24 hour trough at D14
Experimental: The serum ACE activity in the blood samples obtained from ear vein was determined using a kit obtained from Sigma (St. Louis, Mo.). The procedure used is a spectrophotometric method utilizing the synthetic tripeptide substrate N-[3-(2-furyl)acryloyl]-L-phenylalanylglycylglycine (FAPGG). ACE catalyzes hydrolysis of FAPGG to furylacryloylphenylalanine (FAP) and glycylglycine, which results in a decrease in absorbance at a wavelength of 340 nm. The ACE activity in the sample was determined by comparing the sample reaction rate to that obtained with an ACE calibrator.
The efficiency of the treatment is calculated as the percentage of the D10 serum activity according to the ratio: D14 serum activity/D10 serum activity.
For the latter drug, tablets were daily dissolved in saline serum and the resulting suspension was injected. Acetylcholine chloride, serotonin […] sulfate, and sodium nitroprusside were all purchased from Sigma Chemical Co., St. Louis, Mo.

[4] = test system: coronary microvessels; settings: Greiss reaction (Circulation, 95:176-182); cited from earlier work
[5] = test system: rabbit ischemic hindlimb model; test: Capillary density in ischemic hindlimb muscles; settings: D40; medial thigh muscles of ischemic limb
[6] = test system: rabbit ischemic hindlimb model; settings: D40 vs control
Experimental: Angiogenesis following resection of femoral artery was assessed at Day 10 (D10) and D40 post-operatively on functional (blood pressure ratio of ischemic to healthy limb, vasoreactivity and resistance) and morphological (angiography and capillary density) criteria.
The animal model was a previously described rabbit ischemic hindlimb model (J. Clin. Invest. 93:662-670). […] A longitudinal incision was then performed, extending from the inguinal ligament to a point just proximal to the patella. Through this incision, the femoral artery and each of its branches were dissected free along its entire length. After dissecting the popliteal and saphenous arteries distally, the external iliac artery and all of the above arteries were ligated with 4.0 silk (Ethicon, Sommerville, N.J.). Finally, the femoral artery was completely excised from its proximal origin as a branch of the external iliac artery, to the point distally where it bifurcates to form the saphenous and popliteal arteries. Following excision of the femoral artery, retrograde propagation of thrombus leads to occlusion of the external iliac artery. […]
The four groups were investigated at D10 and D40 post-operatively at which time lower limb blood pressure, vasomotor reactivity, and angiographic score were evaluated. […]

[7] = test system: rabbit ischemic hindlimb model; test: Lower-limb blood pressure ratio (ischemic/normal limb); assay type: in vivo, New Zealand White rabbits; settings: D40
Experimental: The animal model was a previously described rabbit ischemic hindlimb model (J. Clin. Invest. 93:662-670). […] A longitudinal incision was then performed, extending from the inguinal ligament to a point just proximal to the patella. Through this incision, the femoral artery and each of its branches were dissected free along its entire length. After dissecting the popliteal and saphenous arteries distally, the external iliac artery and all of the above arteries were ligated with 4.0 silk (Ethicon, Sommerville, N.J.). Finally, the femoral artery was completely excised from its proximal origin as a branch of the external iliac artery, to the point distally where it bifurcates to form the saphenous and popliteal arteries. Following excision of the femoral artery, retrograde propagation of thrombus leads to occlusion of the external iliac artery. Blood flow to the ischemic limb consequently becomes dependent upon collateral vessels issuing from the internal iliac artery.
Animals with limb ischemia were randomly divided into 4 groups. […] The ischemic control group consisted of 6 rabbits receiving no medication of any kind.

[8] = Body weight (Table 1)
[9] = test system: rabbit ischemic hindlimb model; test: Vascular resistance ratio at internal iliac artery after vasoactive agents; settings: D40
[10] = test system: rabbit ischemic hindlimb model; test: Vasomotor reactivity: blood flow ratio in internal iliac artery after vasoactive agents; assay type: in vivo, New Zealand White rabbits; settings: D40; for blood flow ratio (stimulated flow/basal flow), acetylcholine: acetylcholine 1.5 μg/min/kg intra-arterial; for blood flow ratio (stimulated flow/basal flow), nitroprusside: nitroprusside 1.5 μg/min/kg intra-arterial; for blood flow ratio (stimulated flow/basal flow), serotonin: serotonin 1.5 μg/min/kg intra-arterial
Experimental: After measurement of lower limb blood pressure, a 3 Fr., end-hole infusion catheter (Tracker-i 8 TM, Target Therapeutics, San Jose, Calif.) was inserted into the left common carotid artery and advanced to the abdominal aorta. A 0.018 inch Doppler guidewire (Cardiometrics, Inc., Mountain View, Calif.) was advanced through the 3 Fr. infusion to the proximal segment of the internal iliac artery supplying the ischemic limb.
Vascular reactivity was assessed in this study measuring the variation of blood flow induced by vasodilators in the internal iliac artery of the ischemic limb. Blood flow was calculated from the Doppler measurements, using the formula QD =(πd^2 /4)(0.5×APV), where QD =Doppler-derived time average flow, d=vessel diameter, and APV=time average of the spectral peak velocity (Am. J Physiol., 1994;267:H1263-H1271). The mean velocity was estimated as 0.5×APV by assuming a time-averaged parabolic velocity profile across the vessel. […] The angiographic diameter of main collateral artery was determined using an automated edge-detection system that has been previously validated in vivo (Am. J Physiol., 1994;267:H1263-H1271). […] Center-lines were traced manually for a 10-mm long segment beginning immediately distal to the tip of the Doppler wire. The contours were subsequently detected automatically on the basis of the weighted sum of first and second derivative functions applied to the digitized brightness information. The vascular diameter was then measured at the site of the Doppler sample volume, i.e., 5 mm distal to the wire tip (Am. J Physiol., 1994;267:H1263-H1271). Cross-sectional area was calculated assuming a circular lumen.
The results of calculation for blood flow are expressed as the ratio of blood flow after vasodilator injection to basal blood flow, measured just before the injection.

[11] = test system: B2-receptor; settings: B2-receptor antagonist; cited from earlier work
[12] = Day 10 (basal value, before treatment)
[13] = Day 40 (5 days after discontinuation)

Compound | angiographic score [1] | mean tissue ACE activity in thigh muscles [2] | residual tissue ACE activity, % of non-treated tissue activity [2] | residual ACE activity in serum (D14 serum activity/D10 serum activity) [3] | serum ACE activity as percentage of basal value [3] | Serum ACE Activity [3, 12] | Serum ACE Activity ([3]; Day 14 (efficiency value)) | Serum ACE Activity [3, 13] | serum ACE inhibition at any time [3] | NO accumulation [4] | capillary density [5] | stimulation of angiogenesis (functional and morphological criteria) [6] | ischemic/normal calf systolic blood pressure ratio [7] | vascular resistance ratio (after injection/basal), acetylcholine [9] | vascular resistance ratio (after injection/basal), nitroprusside [9] | vascular resistance ratio (after injection/basal), serotonin [9] | blood flow ratio (stimulated flow/basal flow), acetylcholine [10] | blood flow ratio (stimulated flow/basal flow), nitroprusside [10] | blood flow ratio (stimulated flow/basal flow), serotonin [10] | further results
C[C@H](CS)C(=O)N1CCC[C@H]1C(=O)O [captopril] | 35.03±0.02% | 7.65±1.69 Ul/g | 61% | 42.54±0.03% | 92.87±0.04% | 55.94 ± 0.75 U/L | 23.92 ± 0.60 U/L | 51.80 ± 0.80 U/L | higher than 50% | promotion of NO accumulation | 147.2±11.9 /mm^2 | – | – | – | – | – | – | – | – | –
CCOC(=O)[C@H](CCc1ccccc1)N[C@@H](C)C(=O)N1[C@H](C(=O)O)C[C@@H]2CCC[C@@H]21 [ramipril] | – | – | – | – | – | – | – | – | – | promotion of NO accumulation | – | – | – | – | – | – | – | – | – | –
C[C@H](N[C@@H](CCc1ccccc1)C(=O)O)C(=O)N1Cc2ccccc2C[C@H]1C(=O)O [quinaprilat] | 51.19% | 1.69±0.70 Ul/g | 13% | 41.53±0.02% | 80.71±0.08% | 59.50 ± 1.38 U/L | 24.32 ± 0.46 U/L | 46.40 ± 0.98 U/L | higher than 50% | – | 214.0±6.4 /mm^2 | more developed angiogenesis; also recorded: improvement; also recorded: stimulates angiogenesis in vivo | 0.86±0.03 | 0.32±0.03 | 0.28±0.02 | 0.94±0.06 | 3.06±0.25 | 2.94±0.24 | 1.17±0.08 | Body Weight ([8]; Day 10): 4.19 ± 0.10 kg; Body Weight ([8]; Day 40): 4.54 ± 0.20 kg
VEGF | 50.88±0.04% | – | – | – | – | – | – | – | – | – | 228.8±9.6 /mm^2 | more developed angiogenesis | 0.74±0.03 | 0.35±0.03 | 0.29±0.04 | 0.77±0.04 | 2.72±0.22 | 2.66±0.35 | 1.19±0.09 | –
NC(N)=NCCC[C@@H](N)C(=O)N[C@@H](CCCN=C(N)N)C(=O)N1CCC[C@H]1C(=O)N1C[C@H](O)C[C@H]1C(=O)NCC(=O)N[C@@H](Cc1cccs1)C(=O)N[C@@H](CO)C(=O)N1Cc2ccccc2C[C@@H]1C(=O)N1[C@H](C(=O)N[C@@H](CCCN=C(N)N)C(=O)O)C[C@@H]2CCCC[C@@H]21 [Icatibant] | – | – | – | – | – | – | – | – | – | – | – | – | – | – | – | – | – | – | – | effect on cardiac capillary length density induced by ACE inhibition [11]: inhibited
C[C@H](N[C@@H](CCc1ccccc1)C(=O)O)C(=O)N1CCC[C@H]1C(=O)O [enalaprilat] | – | – | – | – | – | – | – | – | – | promotion of NO accumulation | – | – | – | – | – | – | – | – | – | –
